From US6989371B1, “Bombesin analogs for treatment of cancer” (Dabur Research Foundation, priority 1996, dated 2006)
Non-standard residues stand in square brackets, D forms with d. Residues, ends and D or L forms follow the SMILES beside them. *: point of attachment. Deg = CCC(N)(CC)C(=O)O; Aib = CC(C)(N)C(=O)O; Butyryl = CCCC(=O)*

Experiments:
Assay in all cases: MTT cytotoxicity assay, 48 hours (Example 14)
[1] = tested on: SW620 (colon); type: cell-based, human
Protocol: (§1) The cytotoxic effect of peptide sequences SEQ ID NO: 9, SEQ ID NO: 10, SEQ ID NO: 11 and SEQ ID NO: 12, were studied by MTT assay which is based on the principle of uptake of MTT[3-[4,5-dimethylthiazol-2-yl]-2,5-diphenyl tetrazolium bromide], a tetrazolium salt by the metabolically active cells where it is metabolized by active mitochondria into a blue colored formazan product which can be read spectrophotometrically. Tumor cells KB (oral squamous). HuTu80 (Stomach), PTC and SW620 (colon), U87MG (Glioblastoma), HBL 100. (Breast), HeP2 (laryngeal) and L132 (Lung) were incubated with the peptide analogs for 48 hours at 37° C. in a 96-well culture plate, followed by the addition of 100 μl MTT and further incubation of 1 hour. The formazon crystals formed inside the cells were dissolved with a detergent comprising 10% Sodium dodecyl sulfate and 0.01 N HCl and optical density read on a multiscan ELISA reader. The optical density was directly proportional to the number of proliferating and metabolically active cells.

[2] = tested on: PTC (colon); type: cell-based, human
Protocol: as §1

[3] = tested on: HBL 100 (Breast); type: cell-based, human
Protocol: as §1

[4] = tested on: HuTu80 (Stomach); type: cell-based, human
Protocol: as §1

[5] = tested on: KB (oral squamous); type: cell-based, human
Protocol: as §1

[6] = tested on: U87MG (Glioblastoma); type: cell-based
Protocol: as §1

[7] = tested on: L132 (Lung); type: cell-based
Protocol: as §1

[8] = tested on: HeP2 (laryngeal); type: cell-based
Protocol: as §1

## CCC(CC)(NC(=O)[C@H](Cc1c[nH]c2ccccc12)NC(=O)[C@H](CCC(N)=O)NC(=O)[C@H](N)Cc1ccccc1)C(=O)N[C@H](C(=O)NCC(=O)N[C@@H](Cc1c[nH]cn1)C(=O)N[C@@H](CC(C)C)C(N)=O)C(C)C [SEQ ID: 9, D-Phe-Gln-Trp-Deg-Val-Gly-His-Leu-NH2] (H-[dF]QW[Deg]VGHL-NH2; N-terminus assumed)
[1]; SW620, 10 pM
  Percentage cytotoxicity: 15.1 ± 0.3%
[1]; SW620, 100 pM
  Percentage cytotoxicity: 28.9 ± 0.2%
[1]; SW620, 1 nM
  Percentage cytotoxicity: 30.8 ± 0.6%
[1]; SW620, 10 nM
  Percentage cytotoxicity: 33.2 ± 2.9%
[1]; SW620, 100 nM
  Percentage cytotoxicity: 25.8 ± 2.8%
[1]; SW620, 1 μM
  Percentage cytotoxicity: 21.6 ± 2.1%
[2]; 10 pM
  Percentage cytotoxicity: 22.4 ± 2.2%
[2]; 100 pM
  Percentage cytotoxicity: 24.5 ± 3.9%
[2]; 1 nM
  Percentage cytotoxicity: 25.6 ± 5.1%
[2]; 10 nM
  Percentage cytotoxicity: 26.8 ± 3.8%
[2]; 100 nM
  Percentage cytotoxicity: 19.5 ± 4.1%
[2]; 1 μM
  Percentage cytotoxicity: 10.3 ± 0.9%
[3]; HBL100, 10 pM
  Percentage cytotoxicity: 17.2 ± 0.1%
[3]; HBL100, 100 pM
  Percentage cytotoxicity: 28.6 ± 2.2%
[3]; HBL100, 1 nM
  Percentage cytotoxicity: 34.1 ± 1.8%
[3]; HBL100, 10 nM
  Percentage cytotoxicity: 28.1 ± 0.6%
[3]; HBL100, 100 nM
  Percentage cytotoxicity: 22.4 ± 1.7%
[3]; HBL100, 1 μM
  Percentage cytotoxicity: 17.2 ± 0.4%
[4]; HuTu80, 10 pM
  Percentage cytotoxicity: 19.5 ± 0.4%
[4]; HuTu80, 100 pM
  Percentage cytotoxicity: 23.8 ± 2.8%
[4]; HuTu80, 1 nM
  Percentage cytotoxicity: 28.0 ± 1.8%
[4]; HuTu80, 10 nM
  Percentage cytotoxicity: 23.5 ± 2.9%
[4]; HuTu80, 100 nM
  Percentage cytotoxicity: 13.5 ± 2.1%
[4]; HuTu80, 1 μM
  Percentage cytotoxicity: 14.2 ± 0.6%
[5]; 10 pM
  Percentage cytotoxicity: 20.6 ± 4.1%
[5]; 100 pM
  Percentage cytotoxicity: 26.9 ± 2.9%
[5]; 1 nM
  Percentage cytotoxicity: 32.6 ± 3.7%
[5]; 10 nM
  Percentage cytotoxicity: 23.0 ± 2.1%
[5]; 100 nM
  Percentage cytotoxicity: 20.8 ± 1.7%
[5]; 1 μM
  Percentage cytotoxicity: 10.4 ± 1.6%
[6]; 10 pM
  Percentage cytotoxicity: 0.0 ± 0.0%
[6]; 100 pM
  Percentage cytotoxicity: 11.9 ± 4.1%
[6]; 1 nM
  Percentage cytotoxicity: 21.8 ± 0.1%
[6]; 10 nM
  Percentage cytotoxicity: 20.0 ± 0.0%
[6]; 100 nM
  Percentage cytotoxicity: 21.4 ± 0.1%
[6]; 1 μM
  Percentage cytotoxicity: 10.0 ± 0.0%
[7]; L132, 10 pM
  Percentage cytotoxicity: 0.0 ± 0.0%
[7]; L132, 100 pM
  Percentage cytotoxicity: 22.4 ± 0.8%
[7]; L132, 1 nM
  Percentage cytotoxicity: 30.5 ± 4.1%
[7]; L132, 10 nM
  Percentage cytotoxicity: 27.2 ± 3.1%
[7]; L132, 100 nM
  Percentage cytotoxicity: 25.9 ± 2.6%
[7]; L132, 1 μM
  Percentage cytotoxicity: 18.3 ± 2.9%
[8]; HeP2, 10 pM
  Percentage cytotoxicity: 0.0 ± 0.0%
[8]; HeP2, 100 pM
  Percentage cytotoxicity: 14.6 ± 0.6%
[8]; HeP2, 1 nM
  Percentage cytotoxicity: 21.3 ± 2.2%
[8]; HeP2, 10 nM
  Percentage cytotoxicity: 28.5 ± 3.1%
[8]; HeP2, 100 nM
  Percentage cytotoxicity: 17.8 ± 0.3%
[8]; HeP2, 1 μM
  Percentage cytotoxicity: 21.6 ± 1.8%

## CCCC(=O)N[C@H](Cc1ccccc1)C(=O)N[C@@H](CCC(N)=O)C(=O)N[C@@H](Cc1c[nH]c2ccccc12)C(=O)N[C@@H](C)C(=O)N[C@H](C(=O)NC(C)(C)C(=O)N[C@@H](Cc1c[nH]cn1)C(=O)N[C@@H](CC(C)C)C(N)=O)C(C)C [SEQ ID: 11, Butanoyl-D-Phe-Gln-Trp-Ala-Val-Aib-His-Leu-NH2] (Butyryl-[dF]QWAV[Aib]HL-NH2)
[1]; SW620, 10 pM
  Percentage cytotoxicity: 20.4 ± 0.3%
[1]; SW620, 100 pM
  Percentage cytotoxicity: 25.9 ± 3.8%
[1]; SW620, 1 nM
  Percentage cytotoxicity: 35.1 ± 2.2%
[1]; SW620, 10 nM
  Percentage cytotoxicity: 31.5 ± 2.6%
[1]; SW620, 100 nM
  Percentage cytotoxicity: 21.0 ± 1.5%
[1]; SW620, 1 μM
  Percentage cytotoxicity: 23.7 ± 1.4%
[2]; 10 pM
  Percentage cytotoxicity: 19.7 ± 0.6%
[2]; 100 pM
  Percentage cytotoxicity: 28.3 ± 0.8%
[2]; 1 nM
  Percentage cytotoxicity: 28.5 ± 2.8%
[2]; 10 nM
  Percentage cytotoxicity: 25.7 ± 4.1%
[2]; 100 nM
  Percentage cytotoxicity: 25.8 ± 2.5%
[2]; 1 μM
  Percentage cytotoxicity: 18.6 ± 1.5%
[3]; HBL100, 10 pM
  Percentage cytotoxicity: 18.2 ± 1.1%
[3]; HBL100, 100 pM
  Percentage cytotoxicity: 15.4 ± 4.1%
[3]; HBL100, 1 nM
  Percentage cytotoxicity: 24.3 ± 1.6%
[3]; HBL100, 10 nM
  Percentage cytotoxicity: 29.9 ± 0.3%
[3]; HBL100, 100 nM
  Percentage cytotoxicity: 22.7 ± 0.5%
[3]; HBL100, 1 μM
  Percentage cytotoxicity: 24.5 ± 0.8%
[4]; HuTu80, 10 pM
  Percentage cytotoxicity: 17.6 ± 1.6%
[4]; HuTu80, 100 pM
  Percentage cytotoxicity: 22.6 ± 3.9%
[4]; HuTu80, 1 nM
  Percentage cytotoxicity: 30.5 ± 4.1%
[4]; HuTu80, 10 nM
  Percentage cytotoxicity: 27.3 ± 2.7%
[4]; HuTu80, 100 nM
  Percentage cytotoxicity: 20.0 ± 3.1%
[4]; HuTu80, 1 μM
  Percentage cytotoxicity: 14.2 ± 0.1%
[5]; 10 pM
  Percentage cytotoxicity: 21.6 ± 3.7%
[5]; 100 pM
  Percentage cytotoxicity: 26.7 ± 5.1%
[5]; 1 nM
  Percentage cytotoxicity: 33.1 ± 2.1%
[5]; 10 nM
  Percentage cytotoxicity: 31.9 ± 3.1%
[5]; 100 nM
  Percentage cytotoxicity: 31.9 ± 2.1%
[5]; 1 μM
  Percentage cytotoxicity: 24.2 ± 1.2%
[6]; 10 pM
  Percentage cytotoxicity: 21.9 ± 2.1%
[6]; 100 pM
  Percentage cytotoxicity: 26.5 ± 2.6%
[6]; 1 nM
  Percentage cytotoxicity: 24.2 ± 1.7%
[6]; 10 nM
  Percentage cytotoxicity: 20.0 ± 0.0%
[6]; 100 nM
  Percentage cytotoxicity: 15.5 ± 0.6%
[6]; 1 μM
  Percentage cytotoxicity: 1.0 ± 0.1%
[7]; L132, 10 pM
  Percentage cytotoxicity: 0.5 ± 0.0%
[7]; L132, 100 pM
  Percentage cytotoxicity: 18.3 ± 0.9%
[7]; L132, 1 nM
  Percentage cytotoxicity: 29.4 ± 0.4%
[7]; L132, 10 nM
  Percentage cytotoxicity: 30.4 ± 0.4%
[7]; L132, 100 nM
  Percentage cytotoxicity: 20.4 ± 1.5%
[7]; L132, 1 μM
  Percentage cytotoxicity: 1.4 ± 1.1%
[8]; HeP2, 10 pM
  Percentage cytotoxicity: 15.1 ± 0.3%
[8]; HeP2, 100 pM
  Percentage cytotoxicity: 20.1 ± 0.0%
[8]; HeP2, 1 nM
  Percentage cytotoxicity: 37.1 ± 3.3%
[8]; HeP2, 10 nM
  Percentage cytotoxicity: 34.6 ± 2.2%
[8]; HeP2, 100 nM
  Percentage cytotoxicity: 23.9 ± 1.1%
[8]; HeP2, 1 μM
  Percentage cytotoxicity: 21.9 ± 2.1%
